This assay has as its system K562. The experiment in a line: Cytotoxicity against human K562 cells after 48 hrs by MTT assay. Format: functional, cell-based. The conditions noted are these: K562, 48 h.

Consider three compounds from ChEMBL document CHEMBL1177888, “Mn(II), Co(II) and Zn(II) complexes with heterocyclic substituted thiosemicarbazones: synthesis, characterization, X-ray crystal structures and antitumor comparison” (Eur J Med Chem, 2010).

Compound `CNC(=S)N/N=C(\C)c1ccccn1` came in with an IC50 of 4.58 µM. The figure for `S=C(N/N=C(\c1ccccc1)c1ccccn1)Nc1ccccc1` is 1.43 µM; for `C/C(=N\NC(N)=S)c1ccccn1` it is 29.7 µM.
